Measurements reported in patent publication US12680075B2, “Immune cells derived from induced pluripotent stem cell” (THE CHILDREN'S MEDICAL CENTER CORPORATION, priority 2016, dated 2026).

How the values were obtained:
Type in all cases: cell-based, human
[1] = tested on: CD34+ d9 hemogenic endothelial (HE) cells; test: T cell potential of CD34+ d9 hemogenic endothelial cells treated with GSK126; conditions: 3 uM GSK126 vs DMSO-treated cells
Description: (§1) To dissect the importance of PRC2 in definitive hematopoietic potential, the inventors knocked down each component of PRC2 (2 shRNAs per gene) in 5F cells and assessed T cell differentiation. The inventors confirmed efficient knockdown by each shRNA (FIG. 3A). […] To validate this finding, the inventors used an […], GSK126, that has 150-fold higher selectivity for EZH2 over EZH1 (McCabe et al. 2012) (FIGS. 3G, 3I and 3J). […] To test the effect of EZH2 inhibition on T cell potential, the inventors generated definitive hemogenic endothelium (HE) from hPSCs with T lymphoid potential via inhibition of Activin/Nodal signaling at the early stage of mesoderm differentiation (Kennedy et al. 2012).

EZH2 and EZH1 = test: Total H3K27me3 protein levels in 5F cells treated with GSK126
Description: At 3 uM, protein levels of total H3K27me3 begins to decrease relative to DMSO control, indicating effective dose for EZH2 and EZH1 inhibition.
as §1

5F cells = test: Colony-forming assays of 5F cells treated with GSK126; conditions: 3 uM GSK126
Description: Colony assays. After 14 days of respecification, 5×10^4 cells were plated into 3 ml of complete methylcellulose H3434 (StemCell Technologies) supplemented with 10 ng/ml IL6 (Peprotech), 10 ng/ml FLT3 (R&D), and 50 ng/ml TPO (R&D). The mixture was distributed into two 60 mm dishes and maintained in a humidified chamber for 14 days.
as §1

`CC[C@H](C)n1cc(C)c2c(C(=O)NCc3c(C)cc(C)[nH]c3=O)cc(-c3ccc(N4CCNCC4)nc3)cc21` [GSK126] was tested, and the “CD4+CD8+ T cell population” value [1] was “abrogated”, the “global H3K27me3” value (EZH2 and EZH1; 3 uM GSK126, 5F cells) was “markedly reduced” and the “concentration at which total H3K27me3 begins to decrease relative to DMSO control (effective dose for EZH2 and EZH1 inhibition)” value (EZH2 and EZH1; 5F cells) was 3 µM. For the same molecule, the “EZH2 and EZH1 enzymatic activity as monitored by total protein levels of H3K27me3” value (EZH2 and EZH1; increasing concentration of GSK126, 5F cells) was “dose-dependent decrease” and the “toxicity as assessed by colony-forming assays” value (5F cells) was “partial toxicity”.
